According to patent publication US9429566B2, “Assay for inhibitors of CIP/KIP protein degradation” (UNIVERSITE DE MONTREAL, priority 2011, dated 2016):
Peptide text beside a SMILES is read from it. * marks the point of attachment. Cbz = O=C(OCc1ccccc1)*

Assays:
[1] = system: p21-Rluc fusion protein; assay: High throughput p21 degradation assay (p21-Rluc reporter, cycloheximide); format: cell-based, human; conditions: MG132 25 μM, set at 100% stabilization
[2] = system: endogenous p21 protein; assay: p21 ELISA of endogenous p21 protein; format: cell-based; conditions: dose-response, normalized to DMSO, FIG. 10B
Text: Luciferase values are normalized to the control DMSO (set to 1). […] ELISA values are normalized to the control DMSO.
The p21-Rluc degradation assay was next transposed to a HTS-compatible format in 384-well plates and used to screen the Institut de Recherche en Immunologie et Cancerologie's (IRIC's) collection of 112,900 compounds (FIG. 6) derived from the Chembridge DIVERset™ screening library, the Maybridge Hitfinder™ screening library, the Specs screening library, the Microsource […]™ collection, the Biomol/Enzo Life Sciences Screen-Well™ library, the Prestwick Chemical Library™ library and the Sigma LOPAC^1280™. The potent proteasome inhibitor MG-132 was used as positive control. The mean increase of p21-Rluc signal by all positive controls across the screen was 3.062 (FIG. 6). This value was set at 100% stabilization and used as comparison reference for test compounds. From the primary screen, 686 compounds that increase the p21-Rluc luminescence signal by at least 1.7-fold and 4 SDs above baseline (DMSO control) were identified (FIG. 5). These compounds were re-tested in a reconfirmation experiment using the same assay conditions. […] Confirmed hits were then tested in a secondary assay using Rluc alone to eliminate compounds that increase luciferase enzymatic activity or boost the luminescence signal. […]

## CC(C)C[C@@H](C=O)NC(=O)[C@H](CC(C)C)NC(=O)[C@H](CC(C)C)NC(=O)OCc1ccccc1 [MG-132] (Cbz-Leu-Leu-Leu-aldehyde)
[1]
  mean increase of p21-Rluc signal by all positive controls across the screen: 3.062
[2]
  intracellular expression of endogenous p21 protein (ELISA): increase in the intracellular expression of the endogenous protein
